“And” between values parts separate entries of the source, which are not always exact repeats. Equal values may be shown once. Read-outs that look alike come from different tables or passages of the source. Ends that are not written are not given here.
What was measured:
CYP2C19 = CYP2C19 (Homo sapiens, UniProt P33261); details: microsomes
[1] = test system: cynomolgus monkey plasma proteins; test: Protein binding in cynomolgus monkey plasma (ultracentrifugation); details: Cynomolgus monkey plasma (K2EDTA); 2 μM; 2.5 h at 37 °C
[2] = as above; details: plasma (K2EDTA), pH 7.4
[3] = Stability in simulated intestinal fluid (SIF); type: in vitro ADME
Description: When developing any potentially oral-route pharmaceutical agent, the denaturing and pepsin-rich environment of the stomach must be considered. The stability of HM-10/10 was tested in simulated gastric fluid (SGF) and simulated intestinal fluid (SIF) over 120 min. […] Samples were tested at 2 μM.
For the HM-10/10 stability assay in simulated gastric and intestinal fluids, propantheline was used to confirm retention time and carbutamide was used as the internal standard for calculations.

CYP1A2 = CYP1A2 induction (enzyme activity) in single-donor human hepatocytes; type: in vitro ADME; details: for Fold Increase (Enzyme Activity) Mean: mean of three lots
Description: The transport medium was replaced with 200 μL of warm (37 °C) incubation medium (InVitroGRO HI, BioIVT Catalog No. Z99009) and the plate was placed in a humidified 5% carbon dioxide incubator at 37 °C for 24 h.
In addition, test article vehicle (PBS) was added to warm (37°C) InVitroGRO HI Medium in a 5:95 (v:v) ratio. […] The plates were removed from the incubator and the hepatocytes were prepared for the induction assay by replacing the cell culture medium with medium containing either the test article, a control inducer, or vehicle control (200 µL per well). The hepatocyte plates were returned to the cell culture incubator and incubated for 24 h.
On Day 3, induction was repeated following the same steps as described above for the previous day, and plates were returned to the cell culture incubator for an additional 24 h.
After aliquots were taken to measure test article stability, all the remaining medium from each well in the hepatocyte plate was removed, all wells were washed once using 200 μL of blank assay buffer, and then 100 μL of the 1000-fold diluted substrate solutions were added to the appropriate wells. The assay plate was returned to the humidified 5% carbon dioxide incubator at 37 °C for 1 h incubation.
At the end of the incubation time, 100 μL of mRNA lysis buffer was added to each well to stop the reaction. Fifty microliters of this reaction mixture were transferred into a new plate and quenched with 200 μL of ice-cold acetonitrile containing a CYP-specific stable labeled internal standard (250 ng/mL acetaminophen-d4, 250 ng/mL hydroxybupropion-d6, or 250 ng/mL hydroxytestosterone-d3). After removal of the aliquots from the plate for enzyme activity determination, the assay plates were sealed and stored in a −70 °C freezer until use for RT-PCR, mRNA analysis.
For the induction assay samples, an aliquot (50 µL) of the supernatant was transferred to a new plate and diluted with 100 µL Milli-Q water. For the test article stability samples, an aliquot (50 µL) of the supernatant was transferred to a new plate and diluted with 60 µL 0.1% formic acid in Milli-Q water. These samples for the enzyme activity assay and article stability test were refrigerated for storage until analysis. […]
HM1010: Induction Potential of Cytochrome P450 Enzymes
(CYP1A2, CYP2B6 and CYP3A4) Using Human Cryopreserved Hepatocytes
Testing Facility Study No.
The purpose of this in-vitro study was to determine the induction potential of HM1010 on human
cytochrome P450 (CYP) isoenzyme (1A2, 2B6 and 3A4) activity. The study design is
Matrix: Inducible cryopreserved human hepatocytes three single-donor lots
Assay Buffer: InVitroGRO KHB
Substrates: Phenacetin (1A2), Bu propion (2B6), and Testosterone (3A4)
Assay conditions: 48 hours at 37°C in humidified 5% carbon dioxide incubator
Analysis: LC-MS/MS (enzyme activity) and mRNA analysis

[4] = Metabolic stability in cryopreserved Sprague-Dawley rat hepatocytes; type: in vitro ADME; details: Sprague-Dawley rat hepatocytes 0.5 million cells/mL; for CLint scaled: rat, hepatocytes, 2 μM
in vitro [5] = details: beagle, dog, plasma, pH 7.4
in vitro [6] = details: cynomolgus monkey, plasma, pH 7.4
in vitro [7] = details: human, plasma, pH 7.4
[8] = test system: CD-1 mouse plasma proteins; test: Protein binding in CD-1 mouse plasma (ultracentrifugation); details: CD-1 mouse plasma (K2EDTA); 2 μM; 2.5 h at 37 °C
[9] = as above; details: CD-1, mouse, plasma (K2EDTA)

Chain of CYP2C19 (P33261 whole entry): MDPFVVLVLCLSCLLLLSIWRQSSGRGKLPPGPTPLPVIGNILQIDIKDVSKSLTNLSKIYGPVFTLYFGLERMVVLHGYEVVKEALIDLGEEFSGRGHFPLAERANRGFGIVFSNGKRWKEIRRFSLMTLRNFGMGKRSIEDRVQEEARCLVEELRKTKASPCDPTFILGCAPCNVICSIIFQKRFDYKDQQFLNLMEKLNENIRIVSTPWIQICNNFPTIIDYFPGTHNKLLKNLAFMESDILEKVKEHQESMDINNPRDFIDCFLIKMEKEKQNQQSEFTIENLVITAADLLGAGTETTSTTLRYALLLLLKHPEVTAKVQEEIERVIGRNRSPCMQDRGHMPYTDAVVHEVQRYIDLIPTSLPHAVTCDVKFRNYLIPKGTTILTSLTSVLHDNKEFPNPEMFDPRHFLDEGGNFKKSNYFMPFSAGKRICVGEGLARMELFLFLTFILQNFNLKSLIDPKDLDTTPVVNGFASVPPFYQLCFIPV

- % Inhibition at 50 µM No PI + NADPH (CYP2C19): −26.4%
- % Inhibition at 50 µM No PI − NADPH (CYP2C19): −9.4%
- % Inhibition at 50 µM PI + NADPH (CYP2C19): −6.0%
- % Inhibition at 50 µM PI − NADPH (CYP2C19): 19.9%
- % Protein Bound Mean ± SD [1]: 26.4 ± 21.6%
- % Protein Free Mean ± SD [1]: 73.6 ± 21.6%
- fraction unbound at 2.5 h, 2 µM ([2]; cynomolgus monkey): 0.736 ± 0.216
- remaining at 2.5 h, 2 µM ([2]; monkey): 25.9%
- Compound detected after 20 min under SIF conditions ([3]; SIF, 2 μM, 20 min): no HM-10/10 could be detected
- half-life at 2 µM ([3]; simulated intestinal fluid (SIF), SIF pH 5.5): 2.72 min
- Fold Increase (Enzyme Activity) Lot HH1086 (CYP1A2; 2 µM): 0.682 fold
- Fold Increase (Enzyme Activity) Lot HH1142 (CYP1A2; 2 µM): 1.33 fold
- Fold Increase (Enzyme Activity) Lot HH1144 (CYP1A2; 2 µM): 1.73 fold
- Fold Increase (Enzyme Activity) Mean (CYP1A2; 2 µM): 1.25 fold
- Fold Increase (Enzyme Activity) Lot HH1086 (CYP1A2; 10 µM): 1.88 fold
- Fold Increase (Enzyme Activity) Lot HH1142 (CYP1A2; 10 µM): 5.19 fold
- Fold Increase (Enzyme Activity) Lot HH1144 (CYP1A2; 10 µM): 3.32 fold
- Fold Increase (Enzyme Activity) Mean (CYP1A2; 10 µM): 3.46 fold
- Fold Increase (Enzyme Activity) Lot HH1086 (CYP1A2; 25 µM): 2.46 fold
- Fold Increase (Enzyme Activity) Lot HH1142 (CYP1A2; 25 µM): 5.98 fold
- Fold Increase (Enzyme Activity) Lot HH1144 (CYP1A2; 25 µM): 3.65 fold
- Fold Increase (Enzyme Activity) Mean (CYP1A2; 25 µM): 4.03 fold
- half-life at 2 µM ([4]; cryopreserved hepatocytes): 5.81 min
- remaining at 0.5 h, 2 µM ([4]; cryopreserved hepatocytes, read-out: % Remaining at 30 min): 1%
- CLint scaled ([4]; read-out: CLint (L/hr/kg) (converted)): 75.4 L/h/kg
- CLint scaled ([4]; read-out: CLint (mL/min/kg)): 75.6 L/h/kg
- half-life at 2 µM (in vitro [5]): 54.6 min
- remaining at 2 h, 2 µM (in vitro [5]): 24.8%
- half-life at 2 µM (in vitro [6]): 52.7 min
- remaining at 2 h, 2 µM (in vitro [6]): 21.9%
- half-life at 2 µM (in vitro [7]): 164 min
- remaining at 2 h, 2 µM (in vitro [7]): 64.5%
- % Protein Bound Mean ± SD [8]: 15.3% and 15.3 ± 24.6%
- % Protein Free Mean ± SD [8]: 84.7 ± 24.6%
- remaining at 2.5 h, 2 µM ([9]; pH 7.4): 14.6%
- fraction unbound at 2.5 h, 2 µM ([9]; pH 7.4, Fu (Unbound Fraction) Mean ± SD, CD-1 mouse plasma (K2EDTA), 2 μM, 2.5 h at 37 °C): 0.847 ± 0.246
Sequence: LRKLRKRLLRLVGRQLEEFL [HM-10/10, LRKLRKRLLRLVGRQLEEFL]
